This passage reports IC50 results from EP0539170A1, “Benzodiazepine derivatives and their use as antagonists of cholecystokinin and/or gastrin receptors” (priority 1991, dated 1993).

This test deals with T1, CCK Receptor (Pancreas) (Rattus norvegicus, UniProt P30551).
T1 construct: The whole pancreas was dissected free of fat tissue and was homogenized; from tissue; host or cells: rat pancreas membrane homogenate
T1 sequence (P30551 1-444): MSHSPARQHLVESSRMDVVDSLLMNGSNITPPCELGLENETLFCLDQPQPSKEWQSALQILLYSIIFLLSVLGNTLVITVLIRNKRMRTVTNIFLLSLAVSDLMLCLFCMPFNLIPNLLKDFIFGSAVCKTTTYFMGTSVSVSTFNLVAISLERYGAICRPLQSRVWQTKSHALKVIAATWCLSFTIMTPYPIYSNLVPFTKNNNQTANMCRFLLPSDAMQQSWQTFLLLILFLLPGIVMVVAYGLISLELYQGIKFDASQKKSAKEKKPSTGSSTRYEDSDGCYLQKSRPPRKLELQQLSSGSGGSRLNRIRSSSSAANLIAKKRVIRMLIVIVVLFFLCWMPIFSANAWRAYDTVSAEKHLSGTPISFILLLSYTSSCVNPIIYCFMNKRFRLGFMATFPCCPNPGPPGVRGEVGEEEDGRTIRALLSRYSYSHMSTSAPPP
Put plainly: CCK Receptor Binding (Pancreas), inhibition of specific 125I-CCK-8 binding. Further details: species or system Sprague-Dawley rats. Conditions: rat whole pancreas membranes; 50 pM 125I-CCK-8; 25°C for 2 hours. The procedure: CCK-8 sulphated was radiolabelled with ¹²⁵I-Bolton Hunter reagent (2000 Ci/mmole). Receptor binding was performed according to Chang and Lotti (Proc. Natl. Acad. Sci. 83, 4923-4926, 1986) with minor modifications.
Male Sprague-Dawley rats (150-200g) were sacrificed by decapitation. The whole pancreas was dissected free of fat tissue and was homogenized in 25 volumes of ice-cold 10 mM N-2-hydroxyethyl-piperazine-N′-2-ethane sulphonic acid (HEPES) buffer with 0.1% soya bean trypsin inhibitor (pH 7.4 at 25°C) with a Kinematica Polytron. The homogenates were centrifuged at 47,800 g for 10 min. Pellets were resuspended in 10 volumes of binding assay buffer (20mM (HEPES)), 1mM ethylene glycol-bis-(β-aminoethylether-N,N′-tetraacetic acid) (EGTA), 5mM MgCl₂, 150 mM NaCl, bacitracin 0.25 mg/ml, soya bean trypsin inhibitor 0.1 mg/ml, and bovine serum albumin 2 mg/ml pH 6.5 at 25°C) using a Teflon (trademark) homogenizer, 15 strokes at 500 rpm. The homogenate was further diluted in binding assay buffer to give a final concentration of 0.5 mg original wet weight/1 ml buffer. […] All assays were run in duplicate. The reaction mixtures were incubated at 25°C for 2 hours and the reaction terminated by rapid filtration (Brandell 24 well cell harvester) over Whatman GF/C filters, washing 3 x 4 mls with ice-cold 100 Mm NaCl. The radioactivity on the filters was counted with a LKB gamma counter.
Drug displacement studies were performed with at least 10 concentrations of compounds of Formula I and the IC₅₀ values were determined by regression analysis IC₅₀ refers to the concentration of the compound required to inhibit 50% of specific binding of ¹²⁵I-CCK-8.
As usually defined, the IC50 is the concentration at which inhibition is half-maximal. Low values mean greater potency, high ones weaker potency. As to `CCCN1C(=O)C(NC(=O)Nc2cccc(C)c2)N=C(N2CCN(CC)CC2)c2ccccc21` (racemic) [Example 37, N-[3(R,S)-2,3-Dihydro-5-(4-ethylpiperazin-1-yl)-2-oxo-1-propyl-1H-1,4-benzodiazepin-3-yl]-N#MIN#-[3-methylphenyl] urea], the IC50 was 3730 nM.

Compound `CCCN1C(=O)C(NC(=O)Nc2cccc(C)c2)N=C(N2CCN(C)CC2)c2cc(C)ccc21` (racemic) [Example 38, N-(3(R,S)-2,3-Dihydro-7-methyl-5-(4-methylpiperazin-1-yl)-2-oxo-1-propyl-1H-1,4-benzodiazepin-3-yl]-N′-[3-methylphenyl]urea] showed an IC50 of 1600 nM.

`CCCN1C(=O)C(NC(=O)Nc2cccc(NC(C)=O)c2)N=C(N2CCN(C)CC2)c2ccccc21` (racemic) [Example 39, N-[3(R,S)-2,3-Dihydro-5-(4-methylpiperazin-1-yl)-2-oxo-1-propyl-1H-1,4-benzodiazepin-3-yl]-N#MIN#-[3-(acetylamino)phenyl] urea] gave an IC50 of more than 3000 nM.

With `CCCN1C(=O)C(NC(=O)Nc2cccc(C)c2)N=C(N2CCN(C)CC2)c2ccc(C)cc21` (racemic) [Example 42, N-[3(R,S)-2,3-Dihydro-8-methyl-5-(4-methylpiperazin-1-yl)-2-oxo-1-propyl-1H-1,4-benzodiazepin-3-yl]-N′-[3-methylphenyl] urea], the 50% inhibitory concentration (IC50) stood at 711 nM.

The compound `Cc1cccc(NC(=O)NC2N=C(N3CCCCCCC3)c3ccccc3N(C)C2=O)c1` (racemic) [Example 43, N-[3(R,S)-2,3-Dihydro-5-(heptamethyleneimin-1-yl)-1-methyl-2-oxo-1H-1,4-benzodiazepin-3-yl]-N#MIN#-[3-methylphenyl] urea] yielded an IC50 of 18.4 nM.

Take `CCCN1C(=O)C(NC(=O)Nc2cccc(C)c2)N=C(N2CCCCC2)c2ccccc21` (racemic) [Example 44, N-[3(R,S)-2,3-Dihydro-2-oxo-5-(piperidin-1-yl)-1-propyl-1H-1,4-benzodiazepin-3-yl]-N′-[3-methylphenyl] urea]: the IC50 is 120 nM.

As for `CCCN1C(=O)C(NC(=O)Nc2cccc(C)c2)N=C(N2CCN(C)CC2)c2ccc(N(C)C)cc21` (racemic) [Example 45, N-[3(R,S)-2,3-Dihydro-8-dimethylamino-5-(4-methylpiperazin-1-yl)-2-oxo-1-propyl-1H-1,4-benzodiazepin-3-yl]-N′-[3-methylphenyl] urea], the IC50 is 956 nM.

`CN1C(=O)C(NC(=O)Nc2ccc3c(c2)CCC3)N=C(N2CCCCCC2)c2ccccc21` (racemic) [Example 46, N-[3(R,S)-2,3-Dihydro-5-(homopiperidin-1-yl)-1-methyl-2-oxo-1H-1,4-benzodiazepin-3-yl]-N′-[5-indanyl] urea] had a half-inhibitory concentration (IC50) of 28.2 nM.

`CCCN1C(=O)C(NC(=O)Nc2cccc(C)c2)N=C(N2CCCCCC2)c2ccccc21` (racemic) [Example 47, N-[3(R,S)-2,3-Dihydro-5-(homopiperidin-1-yl)-2-oxo-1-propyl-1H-1,4-benzodiazepin-3-yl]-N′-[3-methylphenyl] urea] displayed an IC50 of 23.4 nM.

With `CN1C(=O)C(NC(=O)Nc2cccc(C(F)(F)F)c2)N=C(N2CCCCCC2)c2ccccc21` (racemic) [Example 48, N-[3(R,S)-2,3-Dihydro-5-(homopiperidin-1-yl)-1-methyl-2-oxo-1H-1,4-benzodiazepin-3-yl]-N′-[3-trifluoromethylphenyl] urea], the half-inhibitory concentration (IC50) was 31.4 nM.

For the compound `CN(C)c1cccc(NC(=O)NC2N=C(N3CCCCCC3)c3ccccc3N(C)C2=O)c1` (racemic) [Example 49, N-[3(R,S)-2,3-Dihydro-5-(homopiperidin-1-yl)-1-methyl-2-oxo-1H-1,4-benzodiazepin-3-yl]-N′-[3-(dimethylamino)phenyl] urea], the concentration for half-maximal inhibition (IC50) was found to be 57.2 nM.

In the case of `CN1C(=O)C(NC(=O)Nc2ccc(C(C)(C)C)cc2)N=C(N2CCCCCC2)c2ccccc21` (racemic) [Example 50, N-[3(R,S)-2,3-Dihydro-5-(homopiperidin-1-yl)-1-methyl-2-oxo-1H-1,4-benzodiazepin-3-yl]-N′-[4-t-butylphenyl] urea], the IC50 was found to be 815 nM.

`CCCN1C(=O)C(NC(=O)Nc2ccc(N(C)C)cc2)N=C(N2CCN(C)CC2)c2ccccc21` (racemic) [Example 53, N-[3(R,S)-2,3-Dihydro-5-(4-methylpiperazin-1-yl)-2-oxo-1-propyl-1H-1,4-benzodiazepin-3-yl]-#′-[4-(dimethylamino)phenyl] urea] yielded a concentration for half-maximal inhibition (IC50) of more than 3000 nM.

In turn, `CC(C)c1ccc(NC(=O)NC2N=C(N3CCCCCC3)c3ccccc3N(C)C2=O)cc1` (racemic) [Example 54, N-[3(R,S)-2,3-Dihydro-5-(homopiperidin-1-yl)-1-methyl-2-oxo-1H-1,4-benzodiazepin-3-yl]-N′-[4-isopropylphenyl] urea] returned an IC50 of 399 nM.

In the case of `CCCN1C(=O)C(NC(=O)Nc2cccc(C)c2)N=C(N2CCSCC2)c2ccccc21` (racemic) [Example 55, N-[3(R,S)-2,3-Dihydro-2-oxo-1-propyl-5-(thiomorpholin-4-yl)-1H-1,4-benzodiazepin-3-yl]-N′-[3-methylphenyl] urea], the half-maximal inhibitory concentration (IC50) stood at 337 nM.

Regarding `CCCN1C(=O)C(NC(=O)Nc2ccc3c(c2)N(C)CC3)N=C(N2CCN(C)CC2)c2ccccc21` (racemic) [Example 56, N-[3(R,S)-2,3-Dihydro-5-(4-methylpiperazin-1-yl)-2-oxo-1-propyl-1H-1,4-benzodiazepin-3-yl]-N#MIN#-[1-methyl-6-indolinyl] urea], the 50% inhibitory concentration (IC50) is more than 3000 nM.

`CN1C(=O)C(NC(=O)Nc2ccc(F)c(F)c2)N=C(N2CCCCCC2)c2ccccc21` (racemic) [Example 57, N-[3(R,S)-2,3-Dihydro-5-(homopiperidin-1-yl)-1-methyl-2-oxo-1H-1,4-benzodiazepin-3-yl]-N′-[3,4-difluorophenyl] urea] came in with an IC50 of 16.7 nM.

Compound `CN1C(=O)C(NC(=O)Nc2cccc(F)c2)N=C(N2CCCCCC2)c2ccccc21` (racemic) [Example 60, N-[3(R,S)-2,3-Dihydro-5-(homopiperidin-1-yl)-1-methyl-2-oxo-1H-1,4-benzodiazepin-3-yl]-N′-[3-fluorophenyl] urea] displayed an IC50 of 7.16 nM.

Take `Cc1cccc(NC(=O)NC2N=C(N3CCCCCCCC3)c3ccccc3N(C)C2=O)c1` (racemic) [Example 61, N-[3(R,S)-2,3-Dihydro-1-methyl-5-(octamethyleneimin-1-yl)-2-oxo-1H-1,4-benzodiazepin-3-yl]-N#MIN#-[3-methylphenyl] urea]: the IC50 worked out at 36.1 nM.

`CN1C(=O)C(NC(=O)Nc2cccc(-c3cc(=O)c(O)co3)c2)N=C(N2CCCCCC2)c2ccccc21` (racemic) [Example 62, N-[3(R,S)-2,3-Dihydro-5-(homopiperidin-1-yl)-1-methyl-2-oxo-1H-1,4-benzodiazepin-3-yl]-N′-[3-(5-hydroxy-4-pyron-2-yl)phenyl] urea]: the 50% inhibitory concentration (IC50) worked out at 21.4 nM.

Consider `CCc1cccc(NC(=O)NC2N=C(N3CCCCCC3)c3ccccc3N(C)C2=O)c1` (racemic) [Example 63, N-[3(R,S)-2,3-Dihydro-5-(homopiperidin-1-yl)-1-methyl-2-oxo-1H-1,4-benzodiazepin-3-yl]-N′-[3-ethylphenyl] urea], for which the IC50 was determined as 4.39 nM.

Turning to `CCN1C(=O)C(NC(=O)Nc2cccc(C)c2)N=C(N2CCCCCC2)c2ccccc21` (racemic) [Example 64, N-[3(R,S)-2,3-Dihydro-1-ethyl-5-(homopiperidin-1-yl)-2-oxo-1H-1,4-benzodiazepin-3-yl]-N′-[3-methylphenyl] urea], the half-maximal inhibitory concentration (IC50) came to 3.59 nM.

As to `Cc1cccc(NC(=O)NC2N=C(N3CCSCC3)c3ccccc3N(C)C2=O)c1` (racemic) [Example 65, N-[3(R,S)-2,3-Dihydro-1-methyl-2-oxo-5-(thiomorpholin-4-yl)-1H-1,4-benzodiazepin-3-yl]-N′-[3-methylphenyl] urea], the IC50 was 17.2 nM.

For the compound `CN1C(=O)C(NC(=O)Nc2ccccc2)N=C(N2CCCCCC2)c2ccccc21` (racemic) [Example 66, N-[3(R,S)-2,3-Dihydro-5-(homopiperidin-1-yl)-1-methyl-2-oxo-1H-1,4-benzodiazepin-3-yl]-N′-phenyl urea], the half-maximal inhibitory concentration (IC50) was found to be 14.2 nM.
